The results in this text go back to patent US20120058920A1, “Method for Identifying Inhibitors Against Dengue Virus” (priority 2009, published 2012).

This assay concerns dengue serotype 2. The assay can be described thus: Antiviral assay (dengue serotype 2), CPE inhibition in Vero cells with ATPLite luminescence readout. It is filed as cell-based, dengue virus. As for the experimental part: 3. Antiviral assays (dengue serotype 2)
15 μl of Vero cells (1500 cells/well) were added to a 384-well white plate containing 10 μl of four-fold serially diluted testing compound in cell culture medium with 2% FCS. 15 μl of virus stock was then added to each well at a MOI of 0.1. Cell controls received only cells and medium, while virus controls received virus but no test compound. Plates were incubated at 37° C. until the viral CPE in the virus control wells reached ˜100% (5-6 days). ATPLite (Perkin Elmer) was added to all wells according to the supplier's instructions. Briefly, 40 μl of the reconstituted lyophilized substrate solution was added to each well. The plate was shaken at 700 rpm for 2 minutes and the luminescence was measured using a Viewlux apparatus (Perkin Elmer) by taking a 0.1-0.5-second integrated reading of each test plate. The results were expressed as EC50 values defined as the concentration of compound achieving 50% inhibition of the virus-reduced luminescence signals as compared with the uninfected cell control. The signal-to-noise ratio of an assay is the ratio between the mean luminescent signals of the cell controls and the virus controls. The dynamic range is defined as the ratio between the signals at the last (maximal signal) and first point in the linear range of the dose-response curve.
Intra-assay reproducibility was measured by performing each experiment in three identical plates with each concentration of drug in triplicate. Inter-assay reproducibility was measured by performing three independent experiments at different times under the same experimental conditions.
(In general: ATP-based viability assays read luminescence as a measure of living cells.)

The mark [1] stands for this setting: Dengue virus, Vero, accuracy of the assay, value ± spread over many measurements (# data 42-54), read-out: EC50.
[2] abbreviates: Dengue virus, Vero cells 1500 cells/well, MOI 0.1, 5-6 days, ATPLite, Exp. # 1, read-out: EC50 (μM) Exp. # 1.
[3] abbreviates: Dengue virus, Vero cells 1500 cells/well, MOI 0.1, 5-6 days, ATPLite, Exp. # 2, read-out: EC50 (μM) Exp. # 2.
Setting [4] is: Dengue virus, Vero cells 1500 cells/well, MOI 0.1, 5-6 days, ATPLite, Exp. # 3, read-out: EC50 (μM) Exp. # 3.
Where [5] appears, read: Dengue virus, Vero cells 1500 cells/well, MOI 0.1, 5-6 days, ATPLite, Exp. # 4, read-out: EC50 (μM) Exp. # 4.
Where [6] appears, read: Dengue virus, Vero cells 1500 cells/well, MOI 0.1, 5-6 days, ATPLite, Exp. # 5, read-out: EC50 (μM) Exp. # 5.
Where [7] appears, read: Dengue virus, Vero cells 1500 cells/well, MOI 0.1, 5-6 days, ATPLite, Exp. # 6, read-out: EC50 (μM) Exp. # 6.
The mark [8] stands for this setting: Dengue virus, Vero cells 1500 cells/well, MOI 0.1, 5-6 days, ATPLite, Exp. # 7, read-out: EC50 (μM) Exp. # 7.

Like-named read-outs stand apart in the source and are kept apart here.

Take `C[C@@]1(O)[C@H](O)[C@@H](CO)O[C@H]1n1ccc(N)nc1=O` [2′-C-methylcytidine]: the EC50 turned out to be 12.6 ± 3.32 µM under setting [1]; 13.5 µM under setting [2]; 14.6 µM under setting [3]; 10.3 µM under setting [4]; 10.4 µM under setting [5]; 6.73 µM under setting [6]. Further, the EC50 stood at 14 µM under setting [7] and 17.4 µM under setting [8].

With `NC(=O)c1ncn([C@@H]2O[C@H](CO)[C@@H](O)[C@H]2O)n1` [Ribavirin], the EC50 under setting [1] is 53 ± 10.2 µM; the EC50 under setting [2] was determined as 52 µM; the concentration giving a half-maximal response (EC50) under setting [3] is 53.8 µM; the EC50 under setting [4] was 43.8 µM; the EC50 under setting [5] came out at 42.4 µM; the EC50 under setting [6] came to 47.7 µM. Further, the EC50 is, setting by setting: under setting [7], 69 µM; under setting [8], 67.5 µM.

Consider `O=c1cnn([C@@H]2O[C@H](CO)[C@@H](O)[C@H]2O)c(=O)[nH]1` [6-Azauridine], for which the EC50 runs as follows: under setting [1], 4.53 ± 0.83 µM; under setting [2], 5.52 µM; under setting [3], 4.85 µM; under setting [4], 3.74 µM; under setting [5], 4.26 µM; under setting [6], 4.6 µM. The concentration giving a half-maximal response (EC50) is, setting by setting: under setting [7], 3.81 µM; under setting [8], 5.14 µM.

Regarding Interferon-α, for the setting “accuracy of the assay, value ± spread over 30 measurements”, the EC50 is listed as 861.2 IU/ml ± 427.11.

A word on the EC50: it is the midpoint of the concentration-response curve.
